Experimental data from patent US8735406B2, “8-oxodihydropurine derivative” (Dainippon Sumitomo Pharma Co., Ltd., priority 2009, dated 2014).
Where two headings read alike, the source gives them in different places.

Target: T1, FAAH (Rattus norvegicus, UniProt P97612)
T1 construct: Preparation of Rat Brain Membranes Preparations (FAAH Enzyme Solution); from tissue; host or cells: rat cerebrum (brain membrane preparation)
T1 sequence (P97612 1-579): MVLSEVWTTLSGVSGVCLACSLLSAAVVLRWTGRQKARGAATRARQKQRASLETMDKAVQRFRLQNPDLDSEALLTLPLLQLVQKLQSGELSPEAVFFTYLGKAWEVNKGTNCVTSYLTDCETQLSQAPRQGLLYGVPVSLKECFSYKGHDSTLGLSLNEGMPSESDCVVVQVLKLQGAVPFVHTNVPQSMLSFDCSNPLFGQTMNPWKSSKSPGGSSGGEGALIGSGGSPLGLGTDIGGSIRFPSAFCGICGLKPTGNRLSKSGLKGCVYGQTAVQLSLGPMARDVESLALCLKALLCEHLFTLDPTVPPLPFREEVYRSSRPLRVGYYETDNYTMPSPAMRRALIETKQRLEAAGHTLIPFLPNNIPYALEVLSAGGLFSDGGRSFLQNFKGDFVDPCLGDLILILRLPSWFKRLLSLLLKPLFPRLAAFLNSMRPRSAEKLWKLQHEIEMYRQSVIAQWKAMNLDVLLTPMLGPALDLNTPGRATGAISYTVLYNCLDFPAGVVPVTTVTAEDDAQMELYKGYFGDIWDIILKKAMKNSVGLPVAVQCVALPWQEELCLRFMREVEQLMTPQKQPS
Experiment: Determination of FAAH inhibitory activity in rat (rat brain membrane preparations, [3H]-anandamide hydrolysis)
Format: biochemical
Conditions: rat brain membrane preparations; for IC50: read-out: FAAH Inhibition IC50
Method in brief: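 Compounds tested from 0.1 nM to 1 μM to derive IC50 against FAAH hydrolysis in rat brain membrane preparations (100 μg/mL). A 10-min 37 °C preincubation was followed by 10 min with [3H]-anandamide (2 nM) mixed with 2 μM unlabelled anandamide. Radioactive ethanolamine was extracted into the water/methanol layer and counted.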

[1] = at 100 nM, read-out: FAAH Inhibition Inhibition Rate at 100 nM
[2] = 100 nM test substance, read-out: FAAH Inhibition, Inhibition Rate at 100 nM

inhibition at 0.1 µM [1] [%]	IC50 [nM]	inhibition at 0.1 µM [2] [%]	IC50 (test substance 0.1 nM to 1 μM) [nM]	SMILES
		91	42	Cn1c(=O)n(C(=O)N2CCCC2)c2cnc(CCc3cccc(F)c3)nc21 [compound 13]
		75	63	COc1cccc(CCc2ncc3c(n2)n(C)c(=O)n3C(=O)N2CCCC2)c1 [compound 15]
		78	41	Cc1ccccc1-c1ncc2c(n1)n(C)c(=O)n2C(=O)N1CCCC1 [compound 169]
		67	69	COc1ccccc1-c1ncc2c(n1)n(C)c(=O)n2C(=O)N1CCCC1 [compound 172]
		102	6	COc1ccc(-c2ncc3c(n2)n(C)c(=O)n3C(=O)N2CCCC2)cc1 [compound 174]
		101	7	CCOc1cccc(-c2ncc3c(n2)n(C)c(=O)n3C(=O)N2CCCC2)c1 [compound 175]
		100	10	CCOc1ccc(-c2ncc3c(n2)n(C)c(=O)n3C(=O)N2CCCC2)cc1 [compound 176]
		78	58	Cn1c(=O)n(C(=O)N2CCCC2)c2cnc(-c3ccc(OC(F)(F)F)cc3)nc21 [compound 177]
		96	42	Cn1c(=O)n(C(=O)N2CCCC2)c2cnc(-c3ccc(C(F)(F)F)cc3)nc21 [compound 178]
		97	44	Cn1c(=O)n(C(=O)N2CCCC2)c2cnc(-c3ccc(-c4ccccc4)cc3)nc21 [compound 179]
		99	38	CCCc1ccc(-c2ncc3c(n2)n(C)c(=O)n3C(=O)N2CCCC2)cc1 [compound 180]
		101	4	Cn1c(=O)n(C(=O)N2CCCC2)c2cnc(-c3ccc(C#N)cc3)nc21 [compound 181]

Second part, the molecule before the results:

SMILES	inhibition at 0.1 µM [1] [%]	IC50 [nM]	inhibition at 0.1 µM [2] [%]	IC50 (test substance 0.1 nM to 1 μM) [nM]
CCn1c(=O)n(C(=O)N(C)C)c2nc(CCc3ccccc3F)ncc21 [Example 643]	97	16		
CCn1c(=O)n(C(=O)N(C)C)c2nc(CCc3cccc(F)c3)ncc21 [Example 644, 7-Ethyl-2-[2-(3-fluorophenyl)ethyl]-N,N-dimethyl-8-oxo-7,8-dihydro-9H-purine-9-carboxamide]	95	10		
CCn1c(=O)n(C(=O)N(C)C)c2nc(CCc3ccc(F)cc3)ncc21 [Example 645, 7-Ethyl-2-[2-(4-fluorophenyl)ethyl]-N,N-dimethyl-8-oxo-7,8-dihydro-9H-purine-9-carboxamide]	98	20		
CCCn1c(=O)n(C(=O)N(C)C)c2nc(CCc3ccccc3F)ncc21 [Example 646, 2-[2-(2-Fluorophenyl)ethyl]-N,N-dimethyl-8-oxo-7-propyl-7,8-dihydro-9H-purine-9-carboxamide]	117	13		
CCCn1c(=O)n(C(=O)N(C)C)c2nc(CCc3cccc(F)c3)ncc21 [Example 647, 2-[2-(3-Fluorophenyl)ethyl]-N,N-dimethyl-8-oxo-7-propyl-7,8-dihydro-9H-purine-9-carboxamide]	100	10		
CCCn1c(=O)n(C(=O)N(C)C)c2nc(CCc3ccc(F)cc3)ncc21 [Example 648, 2-[2-(4-Fluorophenyl)ethyl]-N,N-dimethyl-8-oxo-7-propyl-7,8-dihydro-9H-purine-9-carboxamide]	87	27		
CCn1c(=O)n(C(=O)N2CCC2)c2nc(CCc3ccccc3F)ncc21 [Example 649, 9-(Azetidin-1-ylcarbonyl)-7-ethyl-2-[2-(2-fluorophenyl)ethyl]-7,9-dihydro-8H-purine-8-one]	90	17		
CCn1c(=O)n(C(=O)N2CCC2)c2nc(CCc3cccc(F)c3)ncc21 [Example 650, 9-(Azetidin-1-ylcarbonyl)-7-ethyl-2-[2-(3-fluorophenyl)ethyl]-7,9-dihydro-8H-purine-8-one]	96	10		
CCn1c(=O)n(C(=O)N2CCC2)c2nc(CCc3ccc(F)cc3)ncc21 [Example 651, 9-(Azetidin-1-ylcarbonyl)-7-ethyl-2-[2-(4-fluorophenyl)ethyl]-7,9-dihydro-8H-purine-8-one]	100	9		
CN(C)C(=O)n1c(=O)n(C)c2cnc(Cc3cccc(C(F)(F)F)c3)nc21 [Example 654, N,N,7-Trimethyl-8-oxo-2-[3-(trifluoromethyl)benzyl]-7,8-dihydro-9H-purine-9-carboxamide]	110	11		
CCn1c(=O)n(C(=O)N2CC(c3ccccc3)C2)c2cnc(COC)nc21 [Example 655, 9-Ethyl-2-(methoxymethyl)-7-[(3-phenylazetidin-1-yl)carbonyl]-7,9-dihydro-8H-purine-8-one]	102	10		
CCn1c(=O)n(C(=O)N2CC(c3ccc(F)cc3)C2)c2cnc(COC)nc21 [Example 656, 9-Ethyl-7-{[3-(4-fluorophenyl)azetidin-1-yl]carbonyl}-2-(methoxymethyl)-7,9-dihydro-8H-purine-8-one]	115	10		
CCn1c(=O)n(C(=O)N2CC(c3cccc(F)c3)C2)c2cnc(COC)nc21 [Example 657, 9-Ethyl-7-{[3-(3-fluorophenyl)azetidin-1-yl]carbonyl}-2-(methoxymethyl)-7,9-dihydro-8H-purine-8-one]	119	9		
CCCn1c(=O)n(C(=O)N2CC(c3ccccc3)C2)c2cnc(COC)nc21 [Example 658, 2-(Methoxymethyl)-7-[(3-phenylazetidin-1-yl)carbonyl]-9-propyl-7,9-dihydro-8H-purine-8-one]	86	15		
CCCn1c(=O)n(C(=O)N2CC(c3ccc(F)cc3)C2)c2cnc(COC)nc21 [Example 659, 7-{[3-(4-Fluorophenyl)azetidin-1-yl]carbonyl}-2-(methoxymethyl)-9-propyl-7,9-dihydro-8H-purine-8-one]	112	6		
CCCn1c(=O)n(C(=O)N2CC(c3cccc(F)c3)C2)c2cnc(COC)nc21 [Example 660, 7-{[3-(3-Fluorophenyl)azetidin-1-yl]carbonyl}-2-(methoxymethyl)-9-propyl-7,9-dihydro-8H-purine-8-one]	121	10		
CCCn1c(=O)n(C(=O)N2CC(c3ccccc3F)C2)c2cnc(COC)nc21 [Example 661, 7-{[3-(2-Fluorophenyl)azetidin-1-yl]carbonyl}-2-(methoxymethyl)-9-propyl-7,9-dihydro-8H-purine-8-one]	82	36		
CCCn1c(=O)n(C(=O)N2CC(c3cccc(C(F)(F)F)c3)C2)c2cnc(COC)nc21 [Example 662, 2-(Methoxymethyl)-9-propyl-7-({3-[3-(trifluoromethyl)phenyl]azetidin-1-yl}carbonyl)-7,9-dihydro-8H-purine-8-one]	97	8		
Cn1c(=O)n(C(=O)N2CCCC2)c2cnc(/C=C/c3ccc(C(F)(F)F)cc3)nc21 [compound 3]			59	86
Cn1c(=O)n(C(=O)N2CCCC2)c2cnc(/C=C/c3cccc(C(F)(F)F)c3)nc21 [compound 10]			23	> 100
